Measurements: patent US20230310813A1, “DIMERIC NAPHTHALIMIDE COATING” (ALUCENT BIOMEDICAL, INC., priority 2020, published 2023)
Where “and” joins values, the source holds several entries; their conditions need not be identical. Equal values may be shown once. Entries after “also recorded” stand apart in the source; their conditions may differ.

How the values were obtained:
Type in all cases: physicochemical
[1] = 10-8-10 stability over 8 hours in solvent systems
Description: The purity of a composition was analyzed by UPLC or HPLC.
(§1) The non-limiting exemplary and comparative solvent systems listed in Table 1 were prepared by combining the components of the solvent system at the indicated concentrations. The resulting mixture was then mixed at room temperature until a colorless, clear mixture was obtained. Compound of Formula (I) was then added in the indicated amount and the resulting mixture was mixed at room temperature until a yellow/orange translucent mixture was obtained.

[2] = Solubility of Compound of Formula (I) in solvent systems
Description: as §1
(§2) The solubility and stability of solvent systems were determined.

[3] = Storage stability in solvent systems
Description: as §2

[4] = Stability of coated balloon coating after sterilization (UPLC/HPLC)
Description: A solvent system was prepared by combining ethanol and water and acetic acid in a volume ratio of 89.5:10:0.5. The resulting mixture was then mixed at room temperature until a colorless, clear mixture was obtained. Compound of Formula (I) was then added in the indicated amount and the resulting mixture was mixed at room temperature until a yellow/orange translucent mixture was obtained. This mixture was applied to a 5 mm×60 mm balloon by a pipetting method. The coated balloon was then dried to evaporate the solvent. A coated balloon with a coating thickness of 10 μg/mm^2 was obtained. The calculated amount of Compound of Formula (I) on the coated balloon was 7759 μg.
Coated balloons from Example 3 were sterilized either by ethylene oxide sterilization (EO), gamma sterilization (Gamma) or electron beam sterilization (E-Beam). A group of control balloons was left untreated (Control). After sterilization, a sample of the coating on each of the coated balloons was removed and analyzed.

[5] = Stability of coated balloon in reduced oxygen and reduced moisture packaging; details: coated balloon stored in reduced oxygen and reduced moisture packaging
Description: Packaged coated balloons were prepared as follows. A coated balloon from Example 3 was placed in a foil pouch. The concentration of oxygen within the foil pouch was reduced by purging with nitrogen. A desiccant was added to the foil pouch before sealing the oxygen-purged foil pouch comprising the coated balloon and the desiccant.
At various time points after packaging, a coated balloon was taken out of its packaging. A sample of the coating on the coated balloon was removed and analyzed.

[6] = Room temperature stability of coated balloons; details: for amount of main impurity by LC / formation of impurities over time: 25° C., 60% RH, 0-24 months
Description: Angioplasty balloons coated with the Compound of Formula (I) (“10-8-10 compound”) were tested for their stability at 25° C. over a period of 0, 3, 6, and 12 months. The products described in Table 4 were placed in storage at 25° C.
Samples of each article were taken after 0, 3, 6, 12, 18 and 24 months of storage at 25° C., 60% RH.

[7] = coated balloon after electron beam sterilization (E-Beam)
[8] = coated balloon after ethylene oxide sterilization (EO)
[9] = coated balloon after gamma sterilization (Gamma)
[10] = coated balloon, Control (not sterilized)

10-8-10 stability over 8 hours ([1]; solvent system 89.5% Ethanol/10% water/0.5% acetic acid): ✓
10-8-10 stability over 8 hours ([1]; solvent system 99.5% Ethanol/0.5% acetic acid): ✓
10-8-10 stability over 8 hours ([1]; solvent system Ethanol/IPA): ✓
degradation ([1]; solvent system comprising ethanol, water, and acetic acid): does not degrade appreciably
Solubility >2% w/w ([2]; Table 1, solvent system 89.5% Ethanol/10% water/0.5% acetic acid): ✓
Solubility >2% w/w ([2]; Table 1, solvent system 99% Ethanol/1% Acetone): ✓
Solubility >2% w/w ([2]; Table 1, solvent system Ethanol/Acetone/BHT): ✓
Solubility >2% w/w ([2]; Table 1, solvent system Ethanol/MEK): ✓
Solubility >2% w/w ([2]; Table 2, EtOH/Acetic Acid (99.5:0.5)): ✓
Solubility >2% w/w ([2]; Table 2, EtOH/Water (90:10)): ✓
Solubility >2% w/w ([2]; Table 2, EtOH/Water (98:2)): ✓
Solubility >2% w/w ([2]; Table 2, EtOH/Water/Acetic Acid (89.5:10:0.5)): ✓
Solubility >2% w/w ([2]; Table 2, EtOH/Water/Acetic Acid (99.4:0.5:0.1)): ✓
Storage stability ([3]; EtOH/Water (90:10)): ✓
Storage stability ([3]; EtOH/Water/Acetic Acid (89.5:10:0.5)): ✓
solubility and stability ([3]; ethanol, water, acetic acid (89.5:10:0.5) solvent system): exhibited both solubility and stability
solubility and stability ([3]; ethanol/water (90:10) solvent system): exhibited both solubility and stability
degradation ([4]; coated article subjected to ethylene oxide sterilization): degrades appreciably
Compound of Formula (I) (HPLC area-%) [4, 10]: 98.33 HPLC area-% and 98.32 HPLC area-%
Total impurities (HPLC area-%) [4, 10]: 1.67 HPLC area-% and 1.68 HPLC area-%
increase in impurity concentration [5]: minimal
degradation ([6]; coated article stored at room temperature): degrades appreciably
degradation rate over time at room temperature ([6]; coating further comprising at least one antioxidant): reduced
amount of main impurity by LC / formation of impurities over time ([6]; coating with BHT vs coating of only Compound of Formula (I)): lower amounts; also recorded: reduction
amount of main impurity by LC / formation of impurities over time ([6]; coating with tromethamine vs coating of only Compound of Formula (I)): lower amounts; also recorded: reduction
SMILES: NCCOCCOCCNc1ccc2c3c(cccc13)C(=O)N(CCOCCOCCN1C(=O)c3cccc4c(NCCOCCOCCN)ccc(c34)C1=O)C2=O [Compound of Formula (I), 2,2′-((ethane-1,2-diylbis(oxy))bis(ethane-2,1-diyl))bis(6-((2-(2-(2-aminoethoxy)ethoxy)ethyl)amino)-1H-benzo[de]isoquinoline-1,3(2H)-dione)]
change in impurity concentration ([4]; coated article after radiation sterilization (gamma irradiation, electron beam)): No change or minimal increase; also recorded: minimal increase
Compound of Formula (I) (HPLC area-%) [4, 7]: 98.22 HPLC area-% and 98.33 HPLC area-% and 98.37 HPLC area-%
Total impurities (HPLC area-%) [4, 7]: 1.78 HPLC area-% and 1.67 HPLC area-% and 1.63 HPLC area-%
Compound of Formula (I) (HPLC area-%) [4, 8]: 94.75 HPLC area-% and 94.26 HPLC area-% and 94.35 HPLC area-%
Total impurities (HPLC area-%) [4, 8]: 5.25 HPLC area-% and 5.74 HPLC area-% and 5.65 HPLC area-%
Compound of Formula (I) (HPLC area-%) [4, 9]: 98.32 HPLC area-% and 98.37 HPLC area-% and 98.28 HPLC area-%
Total impurities (HPLC area-%) [4, 9]: 1.68 HPLC area-% and 1.63 HPLC area-% and 1.72 HPLC area-%
